Marks after values point to notes of the source that are not given here.
Tests used:
[1] = Study S.241.1.109: single and multiple dose pharmacokinetics 2 mg TID; format: in vivo, human; conditions: for Accumulation following TID dosing (mean increase): Day 7:Day 1, AUC(0-τ) and Cmax; for Time of peak concentration: after cilansetron dosing
Procedure: In an open-label, randomized, parallel-group study in 36 healthy, male and female subjects (19-45 years), subjects received a 2 mg single dose of cilansetron on Day 1 and 2 mg TID on Days 2-7. The morning doses on Days 1 and 7 were administered immediately after a standard breakfast. Serial blood samples for the measurement of single-dose and steady-state pharmacokinetics of cilansetron and its main metabolites, (4R)-hydroxy cilansetron and (4S)-hydroxy cilansetron, were collected on Day 1 (single dose) up to 24 hours postdose and on Day 7 (multiple dose) up to 8 hours postdose.

human P-glycoprotein = molecular target: T1, human P-glycoprotein (Homo sapiens, UniProt P08183); assay: Study K.241.6026: in vitro transport by P-glycoprotein in PK 1 LLC MDR cells; format: in vitro ADME
T1 construct: expressed in transfected cells; host or cells: PK 1 LLC MDR cells (LLC-PK1 porcine kidney cells expressing human MDR1, by own knowledge)

[2] = Study S.241.1.103: 14C mass balance, 8 mg oral and IV; format: in vivo, human
Procedure: The extent of absorption, distribution, metabolism, and elimination of cilansetron has been examined in an open-label, randomized, two period, crossover, mass balance study in 6 healthy male subjects who were treated with a single oral and single […] (30-minute infusion) of 8 mg ^14C-labeled (50 K μCi) cilansetron, with a washout of at least 2 weeks between periods. The ^14C-cilansetron was appropriately labeled in the aromatic ring and the label was therefore not metabolically labile. Serial blood samples, urine collection, and fecal collection were performed up to 144 hours following each dose. ^14C-radioactivity was measured in plasma, whole blood, urine, and feces, and unchanged cilansetron was measured in plasma and urine. Identification of metabolites of cilansetron was performed in plasma, urine, and feces. The results of this study are presented in Table 2.7.2.3.15 and the mean concentration-time plots for ^14C-radioactivity and unchanged cilansetron are shown in FIG. 24 and FIG. 25.
Cilansetron and metabolite profiles in plasma, urine, and feces were evaluated using HPLC separation followed by determination of radioactivity using scintillation counting. Cilansetron, (4R)-hydroxy cilansetron, and (4S)-hydroxy cilansetron accounted for 29.3%, 25.7%, and 13.8% of the total radioactivity, respectively, in plasma at 6 hours after oral administration, and for 46.2%, 20.0% and 14.1%3 of the total radioactivity in plasma at 3 hours after IV administration. The cumulative percent of cilansetron and 4-hydroxy metabolites excreted in urine over a 48-hour interval following dosing was 0.5% and 32.8% of the dose, respectively, following oral dosing, and 1.1% and 31.9% of the dose following IV dosing. In the case of fecal excretion over a 96-hour postdose, cilansetron, (4R)-hydroxy cilansetron, and (4S)-hydroxy cilansetron accounted for 1.2%, 6.9%, and 4.6% of the dose following oral administration, and 1.3%, 5.1%, and 11.3% of the dose following IV administration.

human 5-HT3 receptor = molecular target: T2, human 5-HT3 receptor (Homo sapiens, UniProt P46098); assay: 5-HT3 receptor binding
T2 sequence (P46098 24-478): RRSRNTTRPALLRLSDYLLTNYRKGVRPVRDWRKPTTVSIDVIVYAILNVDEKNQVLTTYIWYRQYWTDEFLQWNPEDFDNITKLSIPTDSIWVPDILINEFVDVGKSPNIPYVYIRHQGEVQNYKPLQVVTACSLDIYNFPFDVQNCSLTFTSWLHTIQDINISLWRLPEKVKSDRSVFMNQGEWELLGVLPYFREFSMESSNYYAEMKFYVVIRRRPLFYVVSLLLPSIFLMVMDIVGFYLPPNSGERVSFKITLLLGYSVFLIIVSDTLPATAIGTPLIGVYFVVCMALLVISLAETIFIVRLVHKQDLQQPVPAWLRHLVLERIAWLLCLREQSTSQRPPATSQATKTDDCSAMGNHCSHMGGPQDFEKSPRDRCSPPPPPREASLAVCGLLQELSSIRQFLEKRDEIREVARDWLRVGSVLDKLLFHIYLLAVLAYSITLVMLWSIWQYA

[3] = AUC(0-τ) Day 7 to AUC(0-inf) Day 1
[4] = arithmetic mean percentages transported, 3 hours of incubation
[5] = 3 hours after IV administration
[6] = 6 hours after oral administration
[7] = both sexes, human, in vivo, 2 mg, Cmax

T1 sequence (P08183 whole entry): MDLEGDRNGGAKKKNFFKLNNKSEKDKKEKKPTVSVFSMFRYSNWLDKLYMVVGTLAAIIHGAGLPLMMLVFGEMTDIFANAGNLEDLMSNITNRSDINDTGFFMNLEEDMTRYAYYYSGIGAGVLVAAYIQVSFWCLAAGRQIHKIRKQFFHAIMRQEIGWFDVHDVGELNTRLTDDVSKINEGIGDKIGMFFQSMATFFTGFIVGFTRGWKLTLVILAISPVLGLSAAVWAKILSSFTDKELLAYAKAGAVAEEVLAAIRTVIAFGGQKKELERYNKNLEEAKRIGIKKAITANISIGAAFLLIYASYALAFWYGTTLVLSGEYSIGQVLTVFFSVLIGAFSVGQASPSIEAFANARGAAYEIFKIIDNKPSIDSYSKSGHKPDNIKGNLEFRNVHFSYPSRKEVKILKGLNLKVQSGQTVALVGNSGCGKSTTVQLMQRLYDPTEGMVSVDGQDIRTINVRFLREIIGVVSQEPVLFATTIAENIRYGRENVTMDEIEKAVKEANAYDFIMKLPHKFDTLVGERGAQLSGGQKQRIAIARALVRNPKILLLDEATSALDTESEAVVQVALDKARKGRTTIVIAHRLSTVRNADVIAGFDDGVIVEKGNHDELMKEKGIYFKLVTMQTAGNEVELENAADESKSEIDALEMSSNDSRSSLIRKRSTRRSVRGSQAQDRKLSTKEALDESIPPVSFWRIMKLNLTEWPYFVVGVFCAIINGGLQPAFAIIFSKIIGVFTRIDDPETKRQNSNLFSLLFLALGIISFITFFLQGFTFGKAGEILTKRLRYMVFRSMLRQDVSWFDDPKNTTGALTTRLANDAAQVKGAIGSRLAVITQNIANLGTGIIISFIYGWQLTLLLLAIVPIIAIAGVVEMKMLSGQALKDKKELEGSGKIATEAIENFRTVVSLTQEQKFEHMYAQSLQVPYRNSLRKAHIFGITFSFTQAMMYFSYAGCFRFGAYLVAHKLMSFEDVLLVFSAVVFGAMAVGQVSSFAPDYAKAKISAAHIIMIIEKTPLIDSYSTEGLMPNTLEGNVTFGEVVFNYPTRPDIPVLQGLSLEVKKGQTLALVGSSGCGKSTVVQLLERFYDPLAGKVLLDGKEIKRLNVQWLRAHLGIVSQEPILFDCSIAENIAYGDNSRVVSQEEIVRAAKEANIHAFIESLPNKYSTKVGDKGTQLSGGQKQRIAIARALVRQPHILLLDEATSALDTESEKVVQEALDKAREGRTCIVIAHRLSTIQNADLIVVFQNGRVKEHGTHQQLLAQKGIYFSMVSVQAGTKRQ

## Cc1nccn1CC1CCc2c(c3cccc4c3n2CC[C@H]4O)C1=O (stereo partly drawn) [(4R)-hydroxy cilansetron]
[1]; 2 mg TID, Day 7
  AUC(0-τ): 12.9 (18) ng · h/mL
  Cmax: 2.66 (22) ng/mL
[1]; 2 mg single dose, Day 1
  AUC(0-inf): 11.7 (18) ng · h/mL
  AUC(0-τ): 8.43 (21) ng · h/mL
  Cmax: 1.92 (27) ng/mL
  T½: 3.89 (15) h
[1]; AUC(0-τ)
  AUC accumulation ratio Day 7/Day 1: 147^d %
[1]; [3]
  Linearity Ratio: 107%
[1]; Day 1, median (min, max)
  Tmax: 2.00 (0.50, 4.00)^b h
[1]
  Accumulation following TID dosing (mean increase): 35-47%
  Time of peak concentration: approximately 2 hours
[1]; Day 7, median (min, max)
  Tmax: 2.00 (0.75, 4.00)^b h
[1]; approximate mean
  half-life: approximately 4 hours
[1]; human, in vivo
  AUC(0-τ) (Day 7) to AUC(0-inf) (Day 1) mean ratio: 1.07
  Cmax accumulation ratio Day 7/Day 1: 135^e %
Human P-glycoprotein; [4]
  Membrane Passage: 14%
[2]; [5]
  Share of total radioactivity in plasma: 20.0%
[2]; [6]
  Share of total radioactivity in plasma: 25.7%
[2]; IV
  Fecal excretion over 96 hours: 5.1 % of the dose
[2]; oral
  Fecal excretion over 96 hours: 6.9 % of the dose
Human 5-HT3 receptor
  pKi: 8.5

## Cc1nccn1CC1CCc2c(c3cccc4c3n2CC[C@@H]4O)C1=O (stereo partly drawn) [(4S)-hydroxy cilansetron]
[1]; 2 mg TID, Day 7
  AUC(0-τ): 7.91 (19) ng · h/mL
  Cmax: 1.25 (18) ng/mL
[1]; 2 mg single dose, Day 1
  AUC(0-inf): 7.42 (20) ng · h/mL
  AUC(0-τ): 3.26 (19) ng · h/mL
  Cmax: 0.605 (22) ng/mL
  T½: 7.48 (26) h
[1]; AUC(0-τ)
  AUC accumulation ratio Day 7/Day 1: 239^d %
[1]; [3]
  Linearity Ratio: 108%
[1]; Day 1, median (min, max)
  Tmax: 4.00 (1.50, 6.00)^b h
[1]
  Accumulation following TID dosing (mean increase): 105-139%
  Time of peak concentration: 3 to 4 h
[1]; Day 7, median (min, max)
  Tmax: 3.00 (1.75, 4.00)^b h
[1]; approximate mean
  half-life: ~7.5 h
[1]; human, in vivo
  AUC(0-τ) (Day 7) to AUC(0-inf) (Day 1) mean ratio: 1.08
  Cmax accumulation ratio Day 7/Day 1: 205^e %
[1]; in vivo
  Accumulation following TID dosing: greater than 2 fold
Human P-glycoprotein; [4]
  Membrane Passage: 13%
[2]; [5]
  Share of total radioactivity in plasma: 14.1%
[2]; [6]
  Share of total radioactivity in plasma: 13.8%
[2]; IV
  Fecal excretion over 96 hours: 11.3 % of the dose
[2]; oral
  Fecal excretion over 96 hours: 4.6 % of the dose
Human 5-HT3 receptor
  pKi: 8.0

## Cc1nccn1C[C@H]1CCc2c(c3cccc4c3n2CCC4)C1=O [Cilansetron, (R)-(−)-4,5,6,8,9,10-hexahydro-10-[(2-methyl-1H-imidazol-1-yl)methyl]-11H-pyrido-[3,2,1-jk]-carbazol-11-one]
[1]; both sexes, human, in vivo
  Tmax: 1.75 h
  Tmax at 7 day: 1.5 h
[1]; both sexes, human, in vivo, 2 mg
  AUC(0-inf): 22.3 ng·h/mL
[1]; both sexes, human, in vivo, 2 mg, AUC(0-τ)
  AUC: 21 ng·h/mL
[1]; [7]
  Cmax: 6.63 ng/mL
  Cmax at 7 day: 7.55 ng/mL
[1]; both sexes, human, in vivo, 2 mg, Plasma Cmax
  Cmax: 6 to 7 ng/mL
[1]; both sexes, human, in vivo, 2 mg, T½
  half-life: 1.6 h
[1]; both sexes, human, in vivo, Half-life
  half-life: 1 to 2 h
[1]; both, human, in vivo
  AUC accumulation ratio Day 7/Day 1: 105^d %
  Cmax accumulation ratio Day 7/Day 1: 110^e %
  Linearity Ratio: 99%
[1]; both, human, in vivo, 2 mg
  AUC(0-τ): 23.5 (44) ng · h/mL
  Intersubject % CV for AUC and Cmax: 44-56%
  T½: 1.64 (18) h
Human P-glycoprotein; human
  Concentration required to saturate P-glycoprotein in vitro: above 1000 ng/mL
Human P-glycoprotein; human, 3 h
  Membrane Passage: 33%
  P-gp Factor: 3
[2]; human, in vivo, iv
  AUC(0-last): 999 (223) ng[-equiv] · h/mL
[2]; human, in vivo, iv, 8 mg
  AUC(0-inf): 1217 (299) ng[-equiv] · h/mL
[2]; human, in vivo, po
  AUC(0-last): 908 (244) ng[-equiv] · h/mL
  CL/F (blood): 2857 (1912) mL/min
  Cmax: 171 (63) ng[-equiv]/mL
[2]; human, in vivo, po, 8 mg
  AUC(0-inf): 1047 (248) ng[-equiv] · h/mL
[2]; male, human, in vivo
  Absorption calculated from percentage renal recovery: 99.8%
  Share of urinary excretion within 24 hours of dosing: ≥ 87%
[2]; male, human, in vivo, 144 h
  Dose recovered in urine as unchanged drug: < 1%
[2]; male, human, in vivo, iv
  AUC(0-inf): 209 ng·h/mL
  AUC(0-t): 200 ng·h/mL
  CL (plasma): 118 (42) mL/min
  Cumulative percent excreted in urine over 48 hours: 1.1 % of the dose
  Fecal excretion over 96 hours: 1.3 % of the dose
  Radioactivity in blood cells: 9.5 (4.1) %
  Recovery, Fecal: 28.9 (1.8) %
  Recovery, Total: 92.3 (1.5) %
  T½: 107 h
  Vd: 85.3 L
  Vz: 1001 (162) L
  half-life: 1.51 h
[2]; male, human, in vivo, iv, 3 h
  Share of total radioactivity in plasma: 46.2%
[2]; male, human, in vivo, iv, CL (blood)
  clearance: 1040 mL/min
[2]; male, human, in vivo, iv, CL (plasma)
  clearance: 655 mL/min
[2]; male, human, in vivo, po
  AUC(0-inf): 98.2 ng·h/mL
  AUC(0-t): 91.4 ng·h/mL
  Absorption of orally administered cilansetron: higher than 90%
  Cmax: 52.9 ng/mL
  Cumulative percent excreted in urine over 48 hours: 0.5 % of the dose
  Fecal excretion over 96 hours: 1.2 % of the dose
  Radioactivity in blood cells: 10.5 (5.7) %
  Recovery, Fecal: 27.5 (3.2) %
  Recovery, Total: 90.8 (2.2) %
  Tmax: 0.51 h
  Vd/F: 155 L
  Vz/F: 836 (275) L
  half-life: 1.23 h
[2]; male, human, in vivo, po, 6 h
  Share of total radioactivity in plasma: 29.3%
[2]; male, human, in vivo, po, Absolute Bioavailability
  bioavailability: 49%
Human 5-HT3 receptor
  pKi: 9.4

Reference: patent publication US20090176817A1, “Method of Treatment of Diarrhea-Predominant Irritable Bowel Syndrome in a Subject” (priority 2005, published 2009)
